# From paper PMC7092914 (Biochemical and Biophysical Research Communications, 2005)
# Entries after “also recorded” stand apart in the source; their conditions may differ.
# Target: SARS-CoV 3CL protease (Severe acute respiratory syndrome coronavirus, UniProt P0C6X7)
# Test: biochemical
# Assay type: biochemical
Structure (SMILES),potency relative to hexachlorophene (times less potent),IC50 [µM],apparent Vmax in presence of inhibitor [µmol/min/mg],dependence of inhibitory effect on preincubation time,inhibition mechanism / binding mode
Oc1cc(Cl)ccc1Oc1ccc(Cl)cc1Cl [triclosan],about 10 times,–,–,–,–
Cc1c(O)cccc1C(=O)N[C@@H](CSc1ccccc1)[C@H](O)CN1C[C@H]2CCCC[C@H]2C[C@H]1C(=O)NC(C)(C)C [nelfinavir],about 10 times,46,–,–,–
Oc1c(Cl)cc(Cl)c(Cl)c1Cc1c(O)c(Cl)cc(Cl)c1Cl [hexachlorophene],–,5,6.98 ± 0.16,dependent on preincubation time; also recorded: slowly binding inhibitor,classic competitive inhibitor
